Measurements from the kinase profiling compilation of Christmann-Franck et al. (2016).

Experiments:
PRKACA (human) [1] = biological target: PRKACA (human) (UniProt P17612)
PDPK1 (human) [2] = biological target: PDPK1 (human) (UniProt O15530)
MAPK9 (human) = MAPK9 (human) (UniProt P45984)
MYLK3 (human) = MYLK3 (human) (UniProt Q32MK0); experiment: KINOMEscan competition binding
TAOK2 (human) = TAOK2 (human) (UniProt Q9UL54); experiment: KINOMEscan competition binding; conditions: compound 10.0 µM
MAP3K12 (human) = MAP3K12 (human) (UniProt Q12852); experiment: KINOMEscan competition binding
MAP3K12 (human), sequence (Q12852 whole entry, looked up): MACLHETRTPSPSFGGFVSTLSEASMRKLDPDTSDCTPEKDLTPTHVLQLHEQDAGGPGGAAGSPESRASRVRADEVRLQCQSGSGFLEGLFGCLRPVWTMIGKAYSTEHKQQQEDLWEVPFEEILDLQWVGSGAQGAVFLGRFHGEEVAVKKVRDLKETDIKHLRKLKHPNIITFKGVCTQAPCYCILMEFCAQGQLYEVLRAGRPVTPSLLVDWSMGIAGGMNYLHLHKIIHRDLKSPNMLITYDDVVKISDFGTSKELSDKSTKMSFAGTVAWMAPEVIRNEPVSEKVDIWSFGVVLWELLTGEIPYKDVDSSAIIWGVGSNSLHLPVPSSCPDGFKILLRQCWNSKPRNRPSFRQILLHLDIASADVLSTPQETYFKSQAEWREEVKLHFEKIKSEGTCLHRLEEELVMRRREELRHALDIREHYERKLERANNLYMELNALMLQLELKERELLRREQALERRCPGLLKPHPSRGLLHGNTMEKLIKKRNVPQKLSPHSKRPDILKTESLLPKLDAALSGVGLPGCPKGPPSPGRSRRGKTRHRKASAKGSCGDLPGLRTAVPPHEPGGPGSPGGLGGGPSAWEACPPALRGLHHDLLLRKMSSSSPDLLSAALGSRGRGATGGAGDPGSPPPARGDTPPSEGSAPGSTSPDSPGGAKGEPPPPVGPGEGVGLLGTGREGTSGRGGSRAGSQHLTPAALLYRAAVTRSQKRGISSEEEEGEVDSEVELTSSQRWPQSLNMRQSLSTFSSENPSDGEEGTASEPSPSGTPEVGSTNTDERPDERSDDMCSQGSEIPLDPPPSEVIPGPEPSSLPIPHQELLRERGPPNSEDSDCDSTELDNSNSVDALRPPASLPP

CRK2 (P.falciparum) = CRK2 (P.falciparum) (UniProt P61075); experiment: KINOMEscan competition binding; conditions: compound 10.0 µM
CRK2 (P.falciparum), sequence (P61075 whole entry, looked up): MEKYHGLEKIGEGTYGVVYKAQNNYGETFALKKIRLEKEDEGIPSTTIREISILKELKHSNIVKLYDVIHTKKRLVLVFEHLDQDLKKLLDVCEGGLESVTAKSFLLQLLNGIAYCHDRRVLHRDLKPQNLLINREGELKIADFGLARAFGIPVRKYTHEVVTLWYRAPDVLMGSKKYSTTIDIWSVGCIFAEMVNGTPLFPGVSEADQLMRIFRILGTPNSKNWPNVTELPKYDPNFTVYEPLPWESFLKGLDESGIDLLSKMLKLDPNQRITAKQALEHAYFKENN

CPK1 (P.falciparum) = experiment: KINOMEscan competition binding; conditions: compound 10.0 µM
TNK2 (human) = TNK2 (human) (UniProt Q07912); experiment: KINOMEscan competition binding
TNK2 (human), sequence (Q07912 whole entry, looked up): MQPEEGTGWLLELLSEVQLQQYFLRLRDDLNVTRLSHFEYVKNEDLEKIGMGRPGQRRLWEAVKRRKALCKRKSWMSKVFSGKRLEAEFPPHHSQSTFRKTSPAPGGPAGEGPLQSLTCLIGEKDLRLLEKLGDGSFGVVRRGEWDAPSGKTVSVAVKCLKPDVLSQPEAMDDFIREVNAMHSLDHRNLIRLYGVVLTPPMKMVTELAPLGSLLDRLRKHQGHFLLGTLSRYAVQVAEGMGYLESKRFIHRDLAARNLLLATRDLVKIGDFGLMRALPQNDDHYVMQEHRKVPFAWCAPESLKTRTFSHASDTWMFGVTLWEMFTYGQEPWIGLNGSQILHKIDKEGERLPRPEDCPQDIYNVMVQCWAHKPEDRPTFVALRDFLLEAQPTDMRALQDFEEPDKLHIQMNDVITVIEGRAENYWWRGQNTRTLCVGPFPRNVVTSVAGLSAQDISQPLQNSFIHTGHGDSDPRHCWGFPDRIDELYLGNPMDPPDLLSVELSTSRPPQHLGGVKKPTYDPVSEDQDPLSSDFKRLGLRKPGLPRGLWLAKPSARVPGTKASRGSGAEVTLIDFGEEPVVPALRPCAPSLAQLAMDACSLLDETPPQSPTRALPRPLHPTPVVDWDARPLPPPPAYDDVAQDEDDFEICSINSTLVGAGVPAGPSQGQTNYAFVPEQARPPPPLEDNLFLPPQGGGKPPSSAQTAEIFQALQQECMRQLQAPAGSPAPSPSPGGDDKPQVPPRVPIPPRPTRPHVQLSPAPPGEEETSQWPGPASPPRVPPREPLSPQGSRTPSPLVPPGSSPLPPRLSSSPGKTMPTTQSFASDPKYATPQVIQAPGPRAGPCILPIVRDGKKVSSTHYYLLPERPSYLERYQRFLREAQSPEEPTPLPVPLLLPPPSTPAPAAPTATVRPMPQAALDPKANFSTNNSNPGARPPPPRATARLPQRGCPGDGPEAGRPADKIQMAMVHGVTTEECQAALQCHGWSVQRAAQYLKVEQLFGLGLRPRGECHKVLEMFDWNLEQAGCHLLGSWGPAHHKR

CAMK1G (human) = CAMK1G (human) (UniProt Q96NX5); experiment: KINOMEscan competition binding; conditions: compound 10.0 µM
AURKA (human) = AURKA (human) (UniProt O14965); experiment: SelectScreen, TR FRET; conditions: compound 1.0 µM
FLT4 (human) = FLT4 (human) (UniProt P35916); experiment: SelectScreen, TR FRET; conditions: compound 1.0 µM
PDGFRB (human) = PDGFRB (human) (UniProt P09619); experiment: SelectScreen, TR FRET; conditions: compound 1.0 µM
EPHA1 (human) = EPHA1 (human) (UniProt P21709); experiment: SelectScreen, TR FRET; conditions: compound 1.0 µM
AKT1 (human) = AKT1 (human) (UniProt P31749); experiment: SelectScreen, TR FRET; conditions: compound 1.0 µM
CHEK2 (human) = CHEK2 (human) (UniProt O96017); experiment: SelectScreen, TR FRET; conditions: compound 1.0 µM
PDGFRA (human) = PDGFRA (human) (UniProt P16234); experiment: SelectScreen, TR FRET; conditions: compound 1.0 µM
KDR (human) = KDR (human) (UniProt P35968); experiment: SelectScreen, TR FRET; conditions: compound 1.0 µM
SBK1 (human) = SBK1 (human) (UniProt Q52WX2); experiment: KINOMEscan competition binding
CSNK1A1L (human) = CSNK1A1L (human) (UniProt Q8N752); experiment: KINOMEscan competition binding
PRKACA (human) [3] = biological target: PRKACA (human) (UniProt P17612); experiment: KINOMEscan competition binding
PDPK1 (human) [4] = biological target: PDPK1 (human) (UniProt O15530); experiment: SelectScreen, TR FRET; conditions: compound 1.0 µM
BMPR1A (human) = BMPR1A (human) (UniProt P36894); experiment: KINOMEscan competition binding; conditions: compound 1.0 µM
TAOK1 (human) = TAOK1 (human) (UniProt Q7L7X3); experiment: KINOMEscan competition binding; conditions: compound 1.0 µM
TAOK1 (human), sequence (Q7L7X3 whole entry, looked up): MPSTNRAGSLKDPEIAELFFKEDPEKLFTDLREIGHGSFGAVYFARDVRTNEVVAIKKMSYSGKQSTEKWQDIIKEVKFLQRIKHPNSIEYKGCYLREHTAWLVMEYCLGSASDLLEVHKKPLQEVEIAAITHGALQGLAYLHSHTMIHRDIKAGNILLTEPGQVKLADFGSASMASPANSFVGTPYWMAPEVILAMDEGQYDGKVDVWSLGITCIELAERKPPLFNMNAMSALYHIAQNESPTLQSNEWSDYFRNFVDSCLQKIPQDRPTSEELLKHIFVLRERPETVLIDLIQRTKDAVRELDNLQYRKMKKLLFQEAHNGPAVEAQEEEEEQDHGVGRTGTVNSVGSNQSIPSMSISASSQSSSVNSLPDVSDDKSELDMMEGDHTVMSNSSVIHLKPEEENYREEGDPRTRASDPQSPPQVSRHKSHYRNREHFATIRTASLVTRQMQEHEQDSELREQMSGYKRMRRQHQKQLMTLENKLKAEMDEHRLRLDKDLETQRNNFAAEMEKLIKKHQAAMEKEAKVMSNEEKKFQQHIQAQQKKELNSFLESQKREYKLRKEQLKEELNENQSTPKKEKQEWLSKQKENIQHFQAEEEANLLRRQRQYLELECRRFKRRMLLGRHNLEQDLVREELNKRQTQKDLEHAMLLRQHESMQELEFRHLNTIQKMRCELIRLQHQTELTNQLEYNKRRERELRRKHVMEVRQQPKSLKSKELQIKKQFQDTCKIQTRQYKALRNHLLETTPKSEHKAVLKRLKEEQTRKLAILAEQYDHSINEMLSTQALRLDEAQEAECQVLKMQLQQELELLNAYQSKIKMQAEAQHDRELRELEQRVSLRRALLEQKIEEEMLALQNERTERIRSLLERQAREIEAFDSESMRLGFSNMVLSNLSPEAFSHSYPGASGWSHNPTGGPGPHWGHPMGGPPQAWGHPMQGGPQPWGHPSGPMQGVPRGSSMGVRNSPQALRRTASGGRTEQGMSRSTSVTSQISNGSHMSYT

PDPK1 (human), sequence (O15530 whole entry, looked up): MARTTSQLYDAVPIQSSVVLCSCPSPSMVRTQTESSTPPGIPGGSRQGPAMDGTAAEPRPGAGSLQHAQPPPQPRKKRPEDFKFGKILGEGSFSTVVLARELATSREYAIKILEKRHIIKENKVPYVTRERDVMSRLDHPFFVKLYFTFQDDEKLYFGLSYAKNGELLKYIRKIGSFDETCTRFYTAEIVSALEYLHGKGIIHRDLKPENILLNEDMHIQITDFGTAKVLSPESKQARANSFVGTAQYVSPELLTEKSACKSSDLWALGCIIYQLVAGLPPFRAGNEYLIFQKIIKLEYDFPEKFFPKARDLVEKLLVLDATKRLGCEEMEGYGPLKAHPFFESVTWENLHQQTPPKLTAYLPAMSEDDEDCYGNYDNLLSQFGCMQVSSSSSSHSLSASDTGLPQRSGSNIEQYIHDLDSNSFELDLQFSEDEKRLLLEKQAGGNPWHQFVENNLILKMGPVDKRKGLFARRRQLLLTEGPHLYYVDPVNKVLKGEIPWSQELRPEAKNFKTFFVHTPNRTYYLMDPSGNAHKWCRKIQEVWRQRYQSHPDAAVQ
MYLK3 (human), sequence (Q32MK0 whole entry, looked up): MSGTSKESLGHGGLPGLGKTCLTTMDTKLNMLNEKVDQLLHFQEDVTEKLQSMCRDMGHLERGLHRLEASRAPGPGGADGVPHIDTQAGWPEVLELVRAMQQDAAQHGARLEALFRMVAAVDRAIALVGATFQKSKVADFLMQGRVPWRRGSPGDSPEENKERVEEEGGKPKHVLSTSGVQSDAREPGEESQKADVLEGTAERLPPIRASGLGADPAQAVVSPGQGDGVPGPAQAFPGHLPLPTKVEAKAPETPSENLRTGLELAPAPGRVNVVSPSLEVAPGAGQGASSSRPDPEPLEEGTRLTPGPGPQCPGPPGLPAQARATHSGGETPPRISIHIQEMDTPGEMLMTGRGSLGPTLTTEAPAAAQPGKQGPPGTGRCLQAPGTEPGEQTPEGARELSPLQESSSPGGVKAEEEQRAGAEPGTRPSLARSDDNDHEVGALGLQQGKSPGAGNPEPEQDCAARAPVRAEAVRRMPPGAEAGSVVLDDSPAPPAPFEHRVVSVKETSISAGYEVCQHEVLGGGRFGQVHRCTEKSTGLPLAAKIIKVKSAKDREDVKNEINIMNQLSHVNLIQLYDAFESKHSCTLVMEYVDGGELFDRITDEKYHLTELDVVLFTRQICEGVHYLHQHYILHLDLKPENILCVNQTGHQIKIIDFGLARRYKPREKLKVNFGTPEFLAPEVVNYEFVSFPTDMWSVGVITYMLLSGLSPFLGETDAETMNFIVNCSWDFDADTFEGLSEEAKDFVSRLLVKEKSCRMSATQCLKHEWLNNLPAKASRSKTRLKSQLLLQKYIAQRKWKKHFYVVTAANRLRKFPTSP
MAPK9 (human), sequence (P45984 whole entry, looked up): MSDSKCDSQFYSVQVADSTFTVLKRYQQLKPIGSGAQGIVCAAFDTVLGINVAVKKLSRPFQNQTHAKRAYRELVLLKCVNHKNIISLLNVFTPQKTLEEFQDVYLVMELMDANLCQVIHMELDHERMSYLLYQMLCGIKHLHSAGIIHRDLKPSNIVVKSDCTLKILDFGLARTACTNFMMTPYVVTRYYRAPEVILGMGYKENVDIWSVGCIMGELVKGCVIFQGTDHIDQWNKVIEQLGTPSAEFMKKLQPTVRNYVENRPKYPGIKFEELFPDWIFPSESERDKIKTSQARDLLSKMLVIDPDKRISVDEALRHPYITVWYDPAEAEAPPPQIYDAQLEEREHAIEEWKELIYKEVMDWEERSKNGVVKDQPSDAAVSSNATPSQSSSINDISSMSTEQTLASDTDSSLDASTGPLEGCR

With `Cc1c(C(=O)N2CCOc3ccc(-c4ccc(N)nc4)cc3C2)ccc(S(C)(=O)=O)c1F` as the compound, how does the IC50 (PRKACA (human) [1]) read?
Its IC50 is > 10 µM.

And the IC50 (PDPK1 (human) [2])?
Its IC50 is > 10 µM.

What about the IC50 (MAPK9 (human)) of the same compound?
Its IC50 is > 10 µM.

For `O=C(Nc1cccnc1)c1cc(-c2ccnc(F)c2)ccc1OCc1ccccc1`, which kinase still bound, per cent of control (MYLK3 (human); compound 10.0 µM) is on record?
Its kinase still bound, per cent of control is 100%.

And the kinase still bound, per cent of control (TAOK2 (human))?
The kinase still bound, per cent of control was 100%.

And the residual activity (MAP3K12 (human); compound 10.0 µM)?
Its residual activity is 100%.

What about the kinase still bound, per cent of control (CRK2 (P.falciparum)) of the same compound?
Its kinase still bound, per cent of control is 100%.

And the kinase still bound, per cent of control (CPK1 (P.falciparum))?
Its kinase still bound, per cent of control is 100%.

And the kinase still bound, per cent of control (TNK2 (human); compound 10.0 µM)?
Its kinase still bound, per cent of control is 100%.

And the kinase still bound, per cent of control (CAMK1G (human))?
Its kinase still bound, per cent of control is 100%.

Which results are given for `CC(C)(C)c1cc(NC(=O)NCc2ccc(-c3cc(NC(=O)c4ccc(OCCN5CCOCC5)cc4)[nH]n3)cc2)no1`?
inhibition (AURKA (human)): -48%; inhibition (FLT4 (human)): -86%; inhibition (PDGFRB (human)): -97%; inhibition (EPHA1 (human)): -20%; inhibition (AKT1 (human)): -17%; inhibition (CHEK2 (human)): -10%; inhibition (PDGFRA (human)): -85%; inhibition (KDR (human)): -99%

`CO[C@@H]1[C@H](N(C)C(=O)c2ccccc2)C[C@H]2O[C@]1(C)n1c3ccccc3c3c4c(c5c6ccccc6n2c5c31)C(=O)NC4O` (some centres not stated) was tested. Which Kd (MYLK3 (human)) did it give?
Its Kd is > 10 µM.

And the Kd (MAP3K12 (human))?
Its Kd is > 10 µM.

What about the Kd (SBK1 (human)) of the same compound?
Its Kd is > 10 µM.

And the Kd (CSNK1A1L (human))?
Its Kd is > 10 µM.

And the Kd (PRKACA (human) [3])?
The Kd was > 10 µM.

What about the Kd (TNK2 (human)) of the same compound?
The Kd was 0.015 µM.

`CC(C)(O)c1ccc(-c2cnc3c(n2)N(CC2CCOCC2)CC(=O)N3)cn1` was tested. Which residual activity (PDPK1 (human) [4]) did it give?
The residual activity was 100%.

What does the source list for `Nc1ccccc1Nc1ccc2c(c1)CCc1ccccc1C2=O`?
kinase still bound, per cent of control (BMPR1A (human)): 100%; kinase still bound, per cent of control (TAOK1 (human)): 100%
